Read-outs that look alike come from different tables or passages of the source. Non-standard residues stand in square brackets, D forms with d. No end group written: not given here. pGlu = O=C1CC[C@@H](C(=O)O)N1

We go through 6 compounds from article PMC4682775, “A Novel Vasoactive Proline-Rich Oligopeptide from the Skin Secretion of the Frog Brachycephalus ephippium” (PLoS ONE, 2015).

One data set relates to rat thoracic aorta. In words: tissue or blood. Further details: species or system rat (male Wistar). On the procedure: Male Wistar rats (250 ± 30 g) were maintained under controlled temperature (22 ± 1 ≡C), 12/12 h light/dark cycle, and had free access to water and food (Purina-Nestlé, São Paulo, SP, Brazil). Rat thoracic aortic rings were prepared according to Silva-Filho and colleagues. Briefly, aortic rings (3–4 mm) were maintained in Krebs solution (in mM: NaCl, 118.0; KCl, 4.6; CaCl2.2H2O, 2.5; MgSO4.7H2O, 5.7; NaHCO3, 25.0; KH2PO4.H2O, 1.1; and D-glucose, 11.0) under isometric tension of 1.0 g, 37°C and bubbled with 5% CO2 in 95% O2. […]. Time control contractions induced by PE, but without adding drug were obtained in parallel with other vascular segments.
The IC50 values for the ACE activity and the pD2 values for the vasodilator curves were obtained by non-linear regression. All values were expressed as means ± SEM, and significances for compared values were analyzed by Student’s “t” test or One-way ANOVA followed by Bonferroni’s post-test. All procedures were performed using Graph Pad Prism 5.02™ (Graph Pad Software, Inc., San Diego, CA, USA).

A further data set has as its system M3 muscarinic receptors. As to conditions: ref [17]; cited from earlier work.
In another data set the test system is HEK293 cells. As to conditions: chemiluminescence assay, ref [15],[17]; cited from earlier work. From the text: It is essentially non-fluorescent until it reacts with NO to form a highly fluorescent benzotriazole. ...
The conditions of data set [1]: cited from earlier work.
Data set [2] has as its system M1 muscarinic receptor and B2 bradykinin receptor. To be noted: ref [15]; cited from earlier work.
The test system of another data set is rat aorta. As to conditions: cited from earlier work. From the text:
[…]. NO is an important endothelium-derived vasodilator and is pivotal in several biological processes. The increase in NO production plays a pivotal role in the cardiovascular effects of BPPs.

In data set [3] the test system is argininosuccinate syntethase enzyme (AsS). To be noted: followed by increased L-arginine levels and formation of NO; ref [14]; cited from earlier work.
In the next data set the test system is human hypertension. To be noted: parenteral administration, in contrast to oral administration; ref [10]; cited from earlier work. The source says:
The Bj-BPP-5a was the first BPP for which the amino acid sequence was described. Bj-BPP-5a is present in hydroalcoholic extracts of the snake venom Bothrops jararaca. […] Captopril was the fir ...

Another data set addresses T1, ACE (Rattus norvegicus, UniProt P47820).
T1 construct: 20 μL of enzyme-containing serum; from tissue; host or cells: fresh Wistar rat serum
In words: biochemical. Further details: species or system rat (Wistar rat serum). To be noted: rat serum ACE; 1.0 mM hippuryl-His-Leu-OH, 20 mM Tris-HCl pH 8.1, 0.3 M NaCl, 37°C, 30 min, duplicate; inhibitor 0.05 to 50 μM; non-linear regression; read-out: IC50, ACE inhibition.

For the next data set, the system named is HUVECs. To be noted: 10^−12 to 10^−5 M, 24 hours, MTT 4 hours, n = 3.
The test system of another data set is VSMCs. To be noted: rat aortic VSMCs; 10^−12 to 10^−5 M, 24 hours, MTT 4 hours, n = 3.

T1 sequence (P47820 36-1313): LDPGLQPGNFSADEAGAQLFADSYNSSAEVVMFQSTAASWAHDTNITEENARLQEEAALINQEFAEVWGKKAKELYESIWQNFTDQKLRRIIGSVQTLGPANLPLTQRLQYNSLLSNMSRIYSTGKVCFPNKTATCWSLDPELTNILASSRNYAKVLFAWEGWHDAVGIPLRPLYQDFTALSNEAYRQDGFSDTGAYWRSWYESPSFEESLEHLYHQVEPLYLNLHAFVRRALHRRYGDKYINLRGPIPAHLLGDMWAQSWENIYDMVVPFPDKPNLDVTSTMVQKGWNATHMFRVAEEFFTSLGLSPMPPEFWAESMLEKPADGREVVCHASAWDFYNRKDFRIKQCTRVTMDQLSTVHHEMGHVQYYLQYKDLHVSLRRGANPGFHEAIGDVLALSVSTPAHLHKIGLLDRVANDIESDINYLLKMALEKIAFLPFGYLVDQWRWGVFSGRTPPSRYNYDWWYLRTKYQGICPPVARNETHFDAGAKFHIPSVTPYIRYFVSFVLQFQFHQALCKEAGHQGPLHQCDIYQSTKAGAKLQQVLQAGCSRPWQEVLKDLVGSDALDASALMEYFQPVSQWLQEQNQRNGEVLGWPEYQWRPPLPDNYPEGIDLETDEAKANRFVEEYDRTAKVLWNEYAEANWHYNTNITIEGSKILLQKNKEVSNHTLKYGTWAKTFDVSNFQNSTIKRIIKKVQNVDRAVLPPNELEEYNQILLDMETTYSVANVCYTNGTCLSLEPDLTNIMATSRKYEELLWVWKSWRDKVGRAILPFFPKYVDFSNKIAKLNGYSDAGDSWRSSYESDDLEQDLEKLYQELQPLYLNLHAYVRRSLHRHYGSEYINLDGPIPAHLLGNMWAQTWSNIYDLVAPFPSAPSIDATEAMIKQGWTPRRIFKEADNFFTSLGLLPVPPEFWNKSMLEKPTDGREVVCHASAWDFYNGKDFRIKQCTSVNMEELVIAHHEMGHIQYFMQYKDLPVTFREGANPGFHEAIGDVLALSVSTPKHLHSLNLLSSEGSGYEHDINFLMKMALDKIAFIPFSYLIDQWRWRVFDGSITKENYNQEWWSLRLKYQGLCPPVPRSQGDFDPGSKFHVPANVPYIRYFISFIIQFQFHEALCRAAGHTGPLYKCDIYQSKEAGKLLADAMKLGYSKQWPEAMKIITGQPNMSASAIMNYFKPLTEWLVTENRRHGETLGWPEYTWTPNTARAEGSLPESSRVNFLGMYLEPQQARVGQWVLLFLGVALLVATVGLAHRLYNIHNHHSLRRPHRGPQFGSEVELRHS
Method for ACE: Fresh Wistar rat serum was used as source of ACE in these reactions, and the product H-His-Leu-OH was measured fluorimetrically following derivatization with o-phtaldialdehyde, as described [24, 25]. Reactions were carried out, in duplicate, at 37°C for 30 min in 200 μL of 20 mM Tris-HCl buffer, pH 8.1, 0.3 M NaCl, 1.0 mM H-hippuryl-His-Leu-OH, 20 μL of enzyme-containing serum and different inhibitor concentrations as described above.

On to `C[C@H](CS)C(=O)N1CCC[C@H]1C(=O)O` [captopril], for which the Emax in the data set on rat thoracic aorta (Rattus norvegicus, endothelium intact (E+), phenylephrine 3 × 10^−7 M, 10^−9–3 × 10^−5 M cumulative, Krebs 37°C, means ± SEM, n = 6, read-out: Emax (relaxation)) worked out at 32.1 ± 4.2%. In the data set with rat thoracic aorta (endothelium dependence), the “vasodilatation (result in words)” value is “endothelium-dependent vasodilatation”. Moreover, the “vasodilatation, captopril and BPP-BrachyNH2 compared” value with rat thoracic aorta (result in words) is “equipotent and of the same magnitude”.
Consider “<EGGWPRPGPEIPP ([pGlu]GGWPRPGPEIPP) [Bj-BPP-13a]”, for which the “receptors to which increase of NO production is related” value in the data set with M3 muscarinic receptors was “related to the M3 muscarinic receptors activation”.
For <EKWAP [Bj-BPP-5a], the NO release entry with HEK293 cells is listed as “increase NO release”. Further, the antihypertensive effect entry in data set [1] (NO dependence, ref [16]) is “NO-dependent anti-hypertensive effect”. In [2], the “receptors on which increment of NO production depends” value was “depends on M1 muscarinic receptor and B2 bradykinin receptor activation”. Moreover, the vasodilatory effects entry with rat aorta (in vitro and in vivo, ref [45] (TsHpt-I), [16] and [15] (Bj-BPP-5a)) was “vasodilatory effects”. Moreover, the endothelium-dependent relaxation entry with rat aorta (rat aorta, ref [16],[45]) is “endothelium-dependent relaxations sensitive to eNOS inhibition”.
On to “<ENWPHPQIPP ([pGlu]NWPHPQIPP) [Bj-BPP-10c]”, for which the antihypertensive effect entry in data set [1] (result in words, ref [13]) is reported as “ACE-independent antihypertensive effect”. The “argininosuccinate syntethase (AsS) activation” value in data set [3] is on record as “activation of the argininosuccinate syntethase enzyme (AsS)”.
Turning to “<EWPRPQIPP (N-terminal pyroglutamate) [Bj-BPP-9a]”, the “benefit in treatment of human hypertension” value with human hypertension is listed as “showed benefits”.
WPPPKVSP-NH2 [BPP-BrachyNH2]: the IC50 at ACE worked out at 8.2 µM. The “reversibility / lethality to vascular cells” value with rat thoracic aorta (after wash and 30 min stabilization, new PE contraction, data not shown) was “reversible and non-lethal to vascular cells”. Further, the “cell viability / cytotoxicity” value with HUVECs and with VSMCs was “No cytotoxic effects were observed” throughout.
